In patent US11472814B2, “Thienopyranones and furanopyranones as checkpoint inhibitors and modulators of anti-tumor immunity” (SignalRx Pharmaceuticals, Inc., priority 2017, dated 2022):
Where a name gives a salt, the structure may show the parent alone. Read-outs that look alike come from different tables or passages of the source.

Columns and labels:
SYK = biological target: T1, SYK (Homo sapiens, UniProt P43405); assay: SYK inhibition IC50 (Reaction Biology Corp.); type: biochemical
T1 construct: purchased Reaction Biology Corp., Malvern, Pa; (contract assay service)
Text: (§1) The inhibitory activity of a compound of the invention against PI3K and/or BRD4 and/or SYK and/or CDK4/6 can be readily determined using methods known to the skilled artisan, or by commercial vendors offering such services. […] In vivo, PI3K inhibition can be determined from target tissue biopsies by standard tissue processing to disrupt cells and then performing Western Blot analysis to determine the presence or absence of pAKT (substrate of PI3K) relative to a control sample. The activity of a compound of the invention as an inhibitor of a bromodomain-containing protein, such as a BET protein, such as BRD2, BRD3, BRD4, and/or BRDT, or an isoform or mutant thereof, may be determined in vitro, in vivo, or in a cell line. In vitro assays include assays that determine inhibition of bromodomain-containing proteins. Alternatively, inhibitor binding may be determined by running a competition experiment where a provided compound is incubated with a bromodomain-containing protein, such as a BET protein bound to known ligands, labeled or unlabeled. For example, bromodomain inhibition can be determined in vitro using Alpha Screen Technology (http://www.reactionbiologv.com/webapps/site/NewsPDFs/Bromodomain%20Assay %20Platform %20for %20Drug %20Screening %20and %20Discovery.pdf). In vivo bromodomain inhibition can be determined indirectly by evaluating the amount of protein present of proteins whose genes' transcription is influenced or controlled by the bromodomain protein, for example, the MYCN protein transcription is controlled by BRD4 (J. E. Delmore et al., Cell 2011, 146, 904-917; A. Puissant, Cancer Discov. 2013, 3, 308-323). Bromodomain inhibition may also be predicted by in silico modeling as described below in the Examples. Additionally, the company Promega offers a SYK luminescent assay to determine a compound's ability to inhibit the SYK protein (https://www.promega.com/-/media/files/resources/protocols/kinase-enzyme-appnotes/syk-kinase-assay-protocol.pdf?la=en).
Compounds of the invention were characterized for their ability to inhibit target proteins using third party vendors offering such services. PI3K alpha, gamma, and delta inhibition activity was determined by Thermo Fisher Scientific-Biosciences Life Sciences Solutions, Madison, Wis. The bromodomain protein inhibition (binding domain 1 and 2 of BRD4) as well as SYK inhibition was determined at Reaction Biology Corp., Malvern, Pa. Additional information on each of the assays performed and services provided is available at each company's website on the internet (https://www.thermofisher.com/us/en/home/life-science.html and http://www.reactionbiology.com/webapps/site, respectively). The IC50 data (shown below in Table 5) was calculated from a 10-point curve and is expressed in nanomolar concentration (nM) rounded off to the nearest whole number. Where multiple values were obtained the range from lowest to highest values is presented. NI=no inhibition detected up to 50 uM or IC50 not reached at 50 uM.

BRD4-1 = biological target: T2, BRD4-1 (Homo sapiens, UniProt O60885); assay: Bromodomain protein inhibition IC50, binding domain 1 of BRD4 (Reaction Biology Corp.); conditions: 10-point curve
T2 construct: purchased Reaction Biology Corp., Malvern, Pa; (contract assay service)
Text: as §1
(§2) Compounds of the invention were characterized for their ability to inhibit target proteins using third party vendors offering such services. PI3K alpha, gamma, and delta inhibition activity was determined by Thermo Fisher Scientific-Biosciences Life Sciences Solutions, Madison, Wis. The bromodomain protein inhibition (binding domain 1 and 2 of BRD4) as well as SYK inhibition was determined at Reaction Biology Corp., Malvern, Pa. […] The IC50 data (shown below in Table 5) was calculated from a 10-point curve and is expressed in nanomolar concentration (nM) rounded off to the nearest whole number. […]

BRD4-2 = biological target: T3, BRD4-2 (Homo sapiens, UniProt O60885); assay: Bromodomain protein inhibition IC50, binding domain 2 of BRD4 (Reaction Biology Corp.); conditions: 10-point curve
T3 construct: purchased Reaction Biology Corp., Malvern, Pa; (contract assay service)
Text: as §1, §2

PI3K α = biological target: T4, PI3K α (Homo sapiens, UniProt P42336); assay: PI3K alpha inhibition IC50 (Thermo Fisher); type: biochemical; conditions: 10-point curve
T4 construct: purchased Thermo Fisher Scientific-Biosciences Life Sciences Solutions, Madison, Wis; (contract assay service)
Text: as §1, §2

PI3K γ = biological target: T5, PI3K γ (Homo sapiens, UniProt P48736); assay: PI3K gamma inhibition IC50 (Thermo Fisher); type: biochemical; conditions: 10-point curve
T5 construct: purchased Thermo Fisher Scientific-Biosciences Life Sciences Solutions, Madison, Wis; (contract assay service)
Text: as §1, §2

[1] = tested on: Bone marrow derived macrophages (BMDMs), M2 gene expression; assay: M2 marker mRNA in IL4 stimulated bone marrow derived macrophages (RT PCR); type: cell-based, murine; conditions: control = 1; for Arg relative mRNA expression (M2 gene) / Il10 relative mRNA expression (M2 gene) / Mmr relative mRNA expression (M2 gene) / Tgfb relative mRNA expression (M2 gene) / Vegf relative mRNA expression (M2 gene): Table 7, IL4 polarized murine BMDMs; for Arg mRNA expression relative to control / Fizz1 mRNA expression relative to control / Mgl mRNA expression relative to control / Mmr mRNA expression relative to control / Ym1 mRNA expression relative to control: IL4 stimulated BMDMs, 24 hours, normalized to GAPDH
Protocol: Bone marrow derived macrophages (MOs) (BMDMs) were exposed to IL4 or LPS for 24 hours to stimulate the M2 or M1 macrophage transition in presence of Compound 1 and the known SYK inhibitor Bay-61-3606 at 1 μM conc. M2 markers Mmr, Ym1, Fizz1 and Mgl mRNA and M1 markers I11, 116 and Tnfa mRNA was quantitated by RT PCR. Values are mean±SEM (n=3-4). Expression of gene of interest is normalized to GAPDH. […] The data provide direct evidence that Compound 1 can block the immunosuppressive macrophage M2 gene expression and activate the M1 gene expression and therefore activate antitumor innate immune cell differentiation in vitro.
(§3) Relative mRNA expression of IL4 or LPS polarized genes in murine bone marrow derived macrophages (BMDMs) treated with various concentrations of inhibitors in vitro. Conclusion: Compound 3 suppressed in vitro macrophage specific immunosuppressive M2 gene expression markers and augmented macrophage stimulatory immune response M1 genes respectively.

[2] = tested on: Bone marrow derived macrophages (BMDMs), M1 gene expression; assay: M1 marker mRNA in LPS stimulated bone marrow derived macrophages (RT PCR); type: cell-based, murine; conditions: control = 1; for Ifng relative mRNA expression (M1 gene) / Il1 relative mRNA expression (M1 gene) / Il6 relative mRNA expression (M1 gene) / Nos2 relative mRNA expression (M1 gene) / Tnfa relative mRNA expression (M1 gene): Table 8, LPS polarized murine BMDMs; for Il1 mRNA expression relative to control / Il6 mRNA expression relative to control / Tnfa mRNA expression relative to control: LPS stimulated BMDMs, 24 hours, normalized to GAPDH
Text: […] M2 markers Mmr, Ym1, Fizz1 and Mgl mRNA and M1 markers I11, 116 and Tnfa mRNA was quantitated by RT PCR. Values are mean±SEM (n=3-4). Expression of gene of interest is normalized to GAPDH. […] The data provide direct evidence that Compound 1 can block the immunosuppressive macrophage M2 gene expression and activate the M1 gene expression and therefore activate antitumor innate immune cell differentiation in vitro.
as §3

[3] = 10-point curve, read-out: SYK IC50

T4 sequence (P42336 whole entry): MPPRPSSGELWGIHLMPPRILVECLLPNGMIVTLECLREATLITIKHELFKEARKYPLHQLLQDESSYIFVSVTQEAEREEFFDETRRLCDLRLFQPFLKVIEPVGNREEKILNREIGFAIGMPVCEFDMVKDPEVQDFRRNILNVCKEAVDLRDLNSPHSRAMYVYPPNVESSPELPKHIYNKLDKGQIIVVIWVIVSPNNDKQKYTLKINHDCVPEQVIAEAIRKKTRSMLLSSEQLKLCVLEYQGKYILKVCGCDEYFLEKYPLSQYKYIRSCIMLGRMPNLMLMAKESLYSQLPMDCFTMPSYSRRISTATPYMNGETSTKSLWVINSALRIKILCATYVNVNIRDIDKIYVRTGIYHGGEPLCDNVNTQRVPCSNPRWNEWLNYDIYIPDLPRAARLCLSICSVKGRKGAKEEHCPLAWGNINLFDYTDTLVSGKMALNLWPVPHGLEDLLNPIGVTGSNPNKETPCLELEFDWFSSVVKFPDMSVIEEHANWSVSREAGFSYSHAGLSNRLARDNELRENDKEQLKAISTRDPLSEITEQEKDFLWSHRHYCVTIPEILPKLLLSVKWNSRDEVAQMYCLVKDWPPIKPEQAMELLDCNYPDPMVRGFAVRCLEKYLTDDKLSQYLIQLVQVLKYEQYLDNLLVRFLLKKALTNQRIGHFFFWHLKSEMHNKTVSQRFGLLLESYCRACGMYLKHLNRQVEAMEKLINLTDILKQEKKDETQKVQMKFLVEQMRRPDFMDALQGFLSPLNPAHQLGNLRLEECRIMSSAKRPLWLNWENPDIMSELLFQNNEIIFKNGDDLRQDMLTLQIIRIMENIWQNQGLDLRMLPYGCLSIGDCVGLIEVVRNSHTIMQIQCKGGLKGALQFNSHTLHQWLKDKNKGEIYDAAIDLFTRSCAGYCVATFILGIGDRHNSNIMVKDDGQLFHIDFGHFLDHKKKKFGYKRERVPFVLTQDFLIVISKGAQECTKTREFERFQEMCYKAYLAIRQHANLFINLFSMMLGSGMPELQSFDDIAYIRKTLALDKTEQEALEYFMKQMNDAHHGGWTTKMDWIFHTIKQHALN
T4 sequence (P27986 whole entry partner): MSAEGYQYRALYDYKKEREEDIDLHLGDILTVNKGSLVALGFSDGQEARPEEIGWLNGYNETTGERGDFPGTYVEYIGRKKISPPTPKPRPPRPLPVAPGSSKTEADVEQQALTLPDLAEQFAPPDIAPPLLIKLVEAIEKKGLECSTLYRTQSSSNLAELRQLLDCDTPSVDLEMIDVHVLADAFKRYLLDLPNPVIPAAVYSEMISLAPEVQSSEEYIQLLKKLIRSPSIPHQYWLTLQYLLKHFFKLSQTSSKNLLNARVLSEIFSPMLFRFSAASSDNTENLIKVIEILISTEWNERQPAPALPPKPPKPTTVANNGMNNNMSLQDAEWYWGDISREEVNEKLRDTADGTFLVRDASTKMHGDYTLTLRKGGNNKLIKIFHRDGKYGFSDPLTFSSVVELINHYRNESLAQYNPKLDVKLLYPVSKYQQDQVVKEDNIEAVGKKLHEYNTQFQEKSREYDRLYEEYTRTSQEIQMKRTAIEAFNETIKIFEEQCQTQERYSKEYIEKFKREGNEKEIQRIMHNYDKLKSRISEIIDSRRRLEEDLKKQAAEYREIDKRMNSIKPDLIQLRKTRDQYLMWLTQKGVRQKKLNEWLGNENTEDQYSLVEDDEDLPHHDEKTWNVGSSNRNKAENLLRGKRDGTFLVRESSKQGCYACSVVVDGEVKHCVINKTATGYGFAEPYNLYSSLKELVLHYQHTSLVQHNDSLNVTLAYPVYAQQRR
T5 sequence (P48736 whole entry): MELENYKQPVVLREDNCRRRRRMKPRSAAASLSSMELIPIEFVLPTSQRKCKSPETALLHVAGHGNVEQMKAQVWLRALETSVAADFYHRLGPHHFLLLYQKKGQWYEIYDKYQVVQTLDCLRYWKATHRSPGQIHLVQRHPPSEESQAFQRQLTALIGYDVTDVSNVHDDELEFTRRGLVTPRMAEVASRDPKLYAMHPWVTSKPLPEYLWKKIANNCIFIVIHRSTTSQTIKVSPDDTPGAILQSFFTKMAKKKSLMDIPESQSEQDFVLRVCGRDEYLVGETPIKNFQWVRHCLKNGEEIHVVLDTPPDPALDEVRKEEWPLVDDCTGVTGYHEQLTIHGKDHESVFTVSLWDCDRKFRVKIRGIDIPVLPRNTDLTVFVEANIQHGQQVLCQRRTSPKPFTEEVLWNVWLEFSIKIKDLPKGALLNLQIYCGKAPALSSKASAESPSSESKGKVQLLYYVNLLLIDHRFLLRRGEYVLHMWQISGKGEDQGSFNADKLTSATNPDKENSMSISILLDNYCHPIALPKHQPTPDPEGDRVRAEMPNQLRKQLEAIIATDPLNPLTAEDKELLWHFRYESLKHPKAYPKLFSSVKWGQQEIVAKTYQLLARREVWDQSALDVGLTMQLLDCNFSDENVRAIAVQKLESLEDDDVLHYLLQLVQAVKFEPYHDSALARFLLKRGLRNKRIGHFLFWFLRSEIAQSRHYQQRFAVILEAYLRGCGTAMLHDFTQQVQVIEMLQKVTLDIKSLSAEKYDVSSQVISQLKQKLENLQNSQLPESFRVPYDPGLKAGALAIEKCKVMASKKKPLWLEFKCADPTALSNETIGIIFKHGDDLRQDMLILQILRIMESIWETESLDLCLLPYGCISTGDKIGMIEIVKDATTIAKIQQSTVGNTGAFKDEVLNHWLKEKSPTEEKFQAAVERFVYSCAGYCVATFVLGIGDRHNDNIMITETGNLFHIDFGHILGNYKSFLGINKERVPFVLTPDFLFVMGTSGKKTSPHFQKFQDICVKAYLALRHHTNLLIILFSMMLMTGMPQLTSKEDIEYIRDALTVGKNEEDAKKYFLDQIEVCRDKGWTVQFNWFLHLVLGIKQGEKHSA

For `Cc1nn(-c2ccnc(Nc3ccc(-c4csc5c(=O)cc(N6CCNCC6)oc45)cc3)n2)cc1CN1CCC1` [Compound 4, 3-[p-(4-{4-[(1-Azetidinyl)methyl]-3-methyl-1H-pyrazol-1-yl}-2-pyrimidinylamino)phenyl]-5-(1-piperazinyl)-4-oxa-1-thia-7-indenone dihydrochloride], the IC50 (SYK; [3]) was 0.1 to 1 µM, the IC50 (BRD4-1) was 5 to 50 µM and the IC50 (BRD4-2) was > 50 µM. The IC50 (PI3K α) was 5 to 50 µM and the IC50 (PI3K γ) was > 50 µM.
With `COc1cc(Nc2ncc(F)c(Nc3ccc4c(n3)N(COP(=O)(O)O)C(=O)C(C)(C)O4)n2)cc(OC)c1OC` [Compound R788, fostamatinib, reference compound] the “Arg relative mRNA expression (M2 gene)” value ([1]; 500 nM) was 0.352 ± 0.07, the “Il10 relative mRNA expression (M2 gene)” value ([1]; 500 nM) was 0.35 ± 0.026 and the “Mmr relative mRNA expression (M2 gene)” value ([1]; 500 nM) was 0.31 ± 031. The “Tgfb relative mRNA expression (M2 gene)” value ([1]; 500 nM) was 0.771 ± .007, the “Vegf relative mRNA expression (M2 gene)” value ([1]; 500 nM) was 0.58 ± 0.065 and the “Ifng relative mRNA expression (M1 gene)” value ([2]; 500 nM) was 3.2 ± 0.09. The “Il1 relative mRNA expression (M1 gene)” value ([2]; 500 nM) was 1.4 ± 0.003, the “Il6 relative mRNA expression (M1 gene)” value ([2]; 500 nM) was 1.8 ± 0.05 and the “Nos2 relative mRNA expression (M1 gene)” value ([2]; 500 nM) was 0.6 ± 0.014. The “Tnfa relative mRNA expression (M1 gene)” value ([2]; 500 nM) was 1.4 ± 0.13.
`C[C@H](NC(=O)c1c(N)nn2cccnc12)c1cc2cccc(C#Cc3cnn(C)c3)c2c(=O)n1-c1ccccc1` [IPI549, reference compound] was tested, and the “Arg relative mRNA expression (M2 gene)” value ([1]; 500 nM) was 0.62 ± 0.08, the “Il10 relative mRNA expression (M2 gene)” value ([1]; 500 nM) was 0.081 ± .002 and the “Mmr relative mRNA expression (M2 gene)” value ([1]; 500 nM) was 0.324 ± 0.049. The “Tgfb relative mRNA expression (M2 gene)” value ([1]; 500 nM) was 0.568 ± 0.05, the “Vegf relative mRNA expression (M2 gene)” value ([1]; 500 nM) was 0.374 ± .132 and the “Ifng relative mRNA expression (M1 gene)” value ([2]; 500 nM) was 1.9 ± 0.249. The “Il1 relative mRNA expression (M1 gene)” value ([2]; 500 nM) was 3.9 ± 0.003, the “Il6 relative mRNA expression (M1 gene)” value ([2]; 500 nM) was 1.8 ± 0.05 and the “Nos2 relative mRNA expression (M1 gene)” value ([2]; 500 nM) was 0.83 ± .04. For the same molecule, the “Tnfa relative mRNA expression (M1 gene)” value ([2]; 500 nM) was 0.984 ± .16.
For `COc1ccc(-c2cc3nccn3c(Nc3ncccc3C(N)=O)n2)cc1OC` [Bay 61-3606, Bay-61-3606, reference compound], the “Arg mRNA expression relative to control” value ([1]; 500 nM) was 0.35, the “Fizz1 mRNA expression relative to control” value ([1]; 500 nM) was 0.05 and the “Mgl mRNA expression relative to control” value ([1]; 500 nM) was 0.33. For the same molecule, the “Mmr mRNA expression relative to control” value ([1]; 500 nM) was 0.12, the “Ym1 mRNA expression relative to control” value ([1]; 500 nM) was 0.07 and the “Arg mRNA expression relative to control” value ([1]; 1 μM) was 0.33. The “Fizz1 mRNA expression relative to control” value ([1]; 1 μM) was 0.005, the “Mgl mRNA expression relative to control” value ([1]; 1 μM) was 0.34 and the “Mmr mRNA expression relative to control” value ([1]; 1 μM) was 0.12. The “Ym1 mRNA expression relative to control” value ([1]; 1 μM) was 0.07, the “Arg mRNA expression relative to control” value ([1]; 5 μM) was 0.06 and the “Fizz1 mRNA expression relative to control” value ([1]; 5 μM) was 0.0013. For the same molecule, the “Mgl mRNA expression relative to control” value ([1]; 5 μM) was 0.36, the “Mmr mRNA expression relative to control” value ([1]; 5 μM) was 0.15 and the “Ym1 mRNA expression relative to control” value ([1]; 5 μM) was 0.04. The “Il1 mRNA expression relative to control” value ([2]; 500 nM) was 0.66, the “Il6 mRNA expression relative to control” value ([2]; 500 nM) was 0.79 and the “Tnfa mRNA expression relative to control” value ([2]; 500 nM) was 0.88. For the same molecule, the “Il1 mRNA expression relative to control” value ([2]; 1 μM) was 0.22, the “Il6 mRNA expression relative to control” value ([2]; 1 μM) was 0.31 and the “Tnfa mRNA expression relative to control” value ([2]; 1 μM) was 0.69. For the same molecule, the “Il1 mRNA expression relative to control” value ([2]; 5 μM) was 0.11, the “Il6 mRNA expression relative to control” value ([2]; 5 μM) was 1.63 and the “Tnfa mRNA expression relative to control” value ([2]; 5 μM) was 2.25.
`Cc1nn(-c2ccnc(Nc3ccc(-c4csc5c(=O)cc(N6CCNCC6)oc45)cc3)n2)cc1CN1CC(O)C1` [Compound 2, 3-[p-(4-{4-[(3-Hydroxy-1-azetidinyl)methyl]-3-methyl-1H-pyrazol-1-yl}-2-pyrimidinylamino)phenyl]-5-(1-piperazinyl)-4-oxa-1-thia-7-indenone dihydrochloride] was tested, and the IC50 (SYK; [3]) was < 0.1 µM, the IC50 (BRD4-1) was 5 to 50 µM and the IC50 (BRD4-2) was > 50 µM. The IC50 (PI3K α) was 1 to 5 µM and the IC50 (PI3K γ) was > 50 µM.
`O=c1cc(N2CCOCC2)oc2c(-c3ccc4c(c3)OCCO4)csc12` [Compound 0] was tested, and the IC50 (SYK; note to Table 5, read-out: SYK inhibition IC50) was > 50 µM.
